From BindingDB's records for doi:10.1016/j.bmcl.2009.05.071 (Astrazeneca, 2009) come the findings set out here.

In the assay the target is T1, Procathepsin L [114-333,T223A] (Homo sapiens, UniProt P07711, T223A).
T1 construct: 114-333
Nature of the assay: Cathepsin Inhibition Assay. Conditions: pH 7; 37 °C. The method, then: IC50 values for inhibition of Cathepsins were determined from dose dependent inhibition of cleavage of fluorogenic, AMC-tagged, peptide substrates.

Each structure is given as a SMILES string.

T1 sequence (P07711 114-333 T223A): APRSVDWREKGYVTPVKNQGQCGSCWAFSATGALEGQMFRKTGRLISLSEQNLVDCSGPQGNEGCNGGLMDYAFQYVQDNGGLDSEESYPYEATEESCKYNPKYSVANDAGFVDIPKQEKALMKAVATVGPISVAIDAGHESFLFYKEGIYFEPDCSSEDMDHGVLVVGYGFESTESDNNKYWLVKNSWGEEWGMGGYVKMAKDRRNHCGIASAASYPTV

Broadly, the IC50 is the midpoint of a concentration-inhibition curve. Lower therefore signals higher potency. The compound `N#CCNC(=O)[C@H](Cc1cccc(Cl)c1)NC(=O)c1ccccc1` [Dipeptidyl nitrile inhibitor, 1] showed an IC50 of 251 nM.

Compound `Cn1nc(C(C)(C)C)cc1C(=O)N[C@@H](Cc1cccc(Cl)c1)C(=O)NCC#N` [Dipeptidyl nitrile inhibitor, 25] showed an IC50 of 13 nM.
